Here are results for 13 compounds from ChEMBL document CHEMBL1921790, “Synthesis and antimicrobial activity of brominated resorcinol dimers” (Bioorg Med Chem Lett, 2011).

≈ marks a conversion by molar mass, not a printed value. Some results are limits rather than exact numbers.

The test system of assay [1] is Aspergillus fumigatus. In words: Antifungal activity against Aspergillus fumigatus HIC 6094 after 48 to 72 hrs by two fold serial dilution method. It is filed as functional.
The subject of assay [2] is Trichophyton rubrum. The assay is described as follows: Antifungal activity against Trichophyton rubrum IFO 9185 after 48 to 72 hrs by two fold serial dilution method. It is filed as functional.
Assay [3] relates to Candida albicans. In words: Antifungal activity against Candida albicans ATCC 10231 after 24 to 72 hrs by two fold serial dilution method. The format is functional.
The target in assay [4] is Isocitrate lyase (Candida albicans, UniProt Q9P8Q7). The assay is described as follows: Inhibition of Candida albicans isocitrate lyase after 30 mins.
Chain of Isocitrate lyase (Q9P8Q7 whole entry): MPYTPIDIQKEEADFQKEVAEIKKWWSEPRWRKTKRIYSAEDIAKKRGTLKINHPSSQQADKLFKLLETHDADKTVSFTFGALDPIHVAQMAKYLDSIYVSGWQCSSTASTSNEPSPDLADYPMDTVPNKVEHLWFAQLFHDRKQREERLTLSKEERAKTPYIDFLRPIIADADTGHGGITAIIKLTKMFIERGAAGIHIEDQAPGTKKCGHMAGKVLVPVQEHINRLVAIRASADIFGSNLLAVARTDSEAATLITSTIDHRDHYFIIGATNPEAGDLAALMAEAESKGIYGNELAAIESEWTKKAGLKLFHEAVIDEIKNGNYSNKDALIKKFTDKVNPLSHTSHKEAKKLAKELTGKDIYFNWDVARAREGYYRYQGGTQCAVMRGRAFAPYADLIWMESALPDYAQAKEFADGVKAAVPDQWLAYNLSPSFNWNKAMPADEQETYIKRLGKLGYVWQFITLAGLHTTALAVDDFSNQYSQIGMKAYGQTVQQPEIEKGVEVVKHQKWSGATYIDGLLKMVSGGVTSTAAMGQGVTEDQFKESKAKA
In assay [5] the test system is Trichophyton mentagrophytes. In words: Antifungal activity against Trichophyton mentagrophytes IFO 40996 after 48 to 72 hrs by two fold serial dilution method. The format is functional.
Assay [6] relates to Staphylococcus aureus. The assay is described as follows: Antibacterial activity against Staphylococcus aureus ATCC 6538p after 24 hrs by two fold serial dilution method. It is filed as functional.
In assay [7] the test system is Bacillus subtilis. The assay is described as follows: Antibacterial activity against Bacillus subtilis ATCC 6633 after 24 hrs by two fold serial dilution method. Particulars: ATCC 6633, 24 h. The format is functional.
Assay [8] relates to Micrococcus luteus. In words: Antibacterial activity against Micrococcus luteus IFC 12708 after 24 hrs by two fold serial dilution method. The format is functional. Particulars: IFC 12708, 24 h.
Assay [9] deals with Salmonella typhimurium. In words: Antibacterial activity against Salmonella Typhimurium ATCC 14028 after 24 hrs by two fold serial dilution method. The format is functional, Salmonella enterica subsp. enterica serovar Typhimurium. Particulars: Salmonella enterica, ATCC 14028, 24 h.
In assay [10] the test system is Proteus vulgaris. The assay is described as follows: Antibacterial activity against Proteus vulgaris ATCC 3851 after 24 hrs by two fold serial dilution method. It is filed as functional. The conditions noted are these: ATCC 3851, 24 h.
Assay [11] deals with Escherichia coli. In words: Antibacterial activity against Escherichia coli ATCC 25922 after 24 hrs by two fold serial dilution method. The format is functional. The conditions noted are these: ATCC 25922, 24 h.

What is called MIC is the lowest concentration found to suppress growth. The low end stands for inhibition by little substance, the high end for a need for much substance. For orientation: IC50 means the concentration that gives 50% inhibition. Low readings indicate greater potency, high ones weaker potency. Regarding `CCCCCC(c1cc(Br)c(O)cc1O)c1cc(Br)c(O)cc1O`, the MIC in [1] was determined as 12.5 µg/mL (≈ 27.2 µM); in assay [2] it was 12.5 µg/mL (≈ 27.2 µM); in [3] it was 25 µg/mL (≈ 54.3 µM); in [5], 25 µg/mL (≈ 54.3 µM); in assay [6], 3.12 µg/mL (≈ 6.78 µM); in assay [7], 1.56 µg/mL (≈ 3.39 µM). The MIC in assay [8] was 1.56 µg/mL (≈ 3.39 µM); in assay [9], 3.12 µg/mL (≈ 6.78 µM); in assay [10], 1.56 µg/mL (≈ 3.39 µM); in assay [11], 50 µg/mL (≈ 109 µM). This compound came in with an IC50 in assay [4] of 28 µM.
For `Oc1ccc(C(c2cc(Br)c(O)cc2O)c2cc(Br)c(O)cc2O)cc1`, the MIC in [1] turned out to be 50 µg/mL (≈ 104 µM); in assay [2] it was 100 µg/mL (≈ 207 µM); in assay [3] it was 50 µg/mL (≈ 104 µM); in [5] it was 100 µg/mL (≈ 207 µM); in [6], 0.78 µg/mL (≈ 1.62 µM); in assay [7] it was 0.78 µg/mL (≈ 1.62 µM). Further, the MIC in assay [8] is 0.78 µg/mL (≈ 1.62 µM); in assay [9], 1.56 µg/mL (≈ 3.24 µM); in assay [10], 0.78 µg/mL (≈ 1.62 µM); in assay [11], more than 100 µg/mL. This compound returned an IC50 in [4] of 25.9 µM.
As for `Oc1cc(O)c(C(c2cc(Br)c(O)cc2O)c2c(Cl)cccc2Cl)cc1Br`, the MIC is 100 µg/mL (≈ 187 µM) in [1]; more than 100 µg/mL in [2]; 100 µg/mL (≈ 187 µM) in assay [3]; 100 µg/mL (≈ 187 µM) in assay [5]; 6.25 µg/mL (≈ 11.7 µM) in [6]; 1.56 µg/mL (≈ 2.92 µM) in [7]. Besides, the MIC in assay [8] was 1.56 µg/mL (≈ 2.92 µM); in assay [9], 6.25 µg/mL (≈ 11.7 µM); in assay [10], 1.56 µg/mL (≈ 2.92 µM); in assay [11], 100 µg/mL (≈ 187 µM). Further, the IC50 in [4] worked out at 17.9 µM.
As for `O=[N+]([O-])c1cccc(C(c2cc(Br)c(O)cc2O)c2cc(Br)c(O)cc2O)c1`, the MIC in assay [1] stood at 100 µg/mL (≈ 196 µM); in assay [2], 100 µg/mL (≈ 196 µM); in assay [3] it was 50 µg/mL (≈ 97.8 µM); in [5], 100 µg/mL (≈ 196 µM); in [6] it was 3.12 µg/mL (≈ 6.1 µM); in assay [7], 1.56 µg/mL (≈ 3.05 µM). Moreover, the MIC in assay [8] is 1.56 µg/mL (≈ 3.05 µM); in assay [9], 3.12 µg/mL (≈ 6.1 µM); in assay [10], 1.56 µg/mL (≈ 3.05 µM); in assay [11] it was more than 100 µg/mL. Also, in [4], the IC50 came out at 26.8 µM.
Consider `O=[N+]([O-])c1ccc(C(c2cc(Br)c(O)cc2O)c2cc(Br)c(O)cc2O)cc1`, for which the MIC is more than 100 µg/mL in assay [1]; more than 100 µg/mL in assay [2]; more than 100 µg/mL in [3]; more than 100 µg/mL in assay [5]; 25 µg/mL (≈ 48.9 µM) in [6]; 12.5 µg/mL (≈ 24.5 µM) in [7]. Moreover, the MIC in [8] was 12.5 µg/mL (≈ 24.5 µM); in assay [9] it was 25 µg/mL (≈ 48.9 µM); in [10], 25 µg/mL (≈ 48.9 µM); in assay [11], more than 100 µg/mL. Half-maximal inhibition in assay [4] (IC50) was put at 20.7 µM.
As to `CCCCCC(c1ccc(O)cc1O)c1cc(Br)c(O)cc1O` (configuration not stated), the MIC came to 50 µg/mL (≈ 131 µM) in assay [1]; 50 µg/mL (≈ 131 µM) in assay [2]; 50 µg/mL (≈ 131 µM) in [3]; 50 µg/mL (≈ 131 µM) in [5]; 6.25 µg/mL (≈ 16.4 µM) in [6]; 3.12 µg/mL (≈ 8.18 µM) in assay [7]. For the same compound, the MIC in [8] was 3.12 µg/mL (≈ 8.18 µM); in assay [9] it was 3.12 µg/mL (≈ 8.18 µM); in [10], 3.12 µg/mL (≈ 8.18 µM); in assay [11], 100 µg/mL (≈ 262 µM). In assay [4], this compound showed an IC50 of 46.6 µM.
With `Oc1ccc(C(c2ccc(O)cc2O)c2cc(Br)c(O)cc2O)cc1` (configuration not stated), the MIC is more than 100 µg/mL in assay [1]; more than 100 µg/mL in assay [2]; more than 100 µg/mL in assay [3]; more than 100 µg/mL in [5]; 6.25 µg/mL (≈ 15.5 µM) in [6]; 3.12 µg/mL (≈ 7.74 µM) in [7]. Further, the MIC in [8] is 3.12 µg/mL (≈ 7.74 µM); in [9], 6.25 µg/mL (≈ 15.5 µM); in [10], 3.12 µg/mL (≈ 7.74 µM); in assay [11] it was more than 100 µg/mL. This compound returned a half-inhibitory concentration (IC50) in assay [4] of 90.5 µM.
On to `Oc1ccc(C(c2cc(Br)c(O)cc2O)c2c(Cl)cccc2Cl)c(O)c1` (configuration not stated), for which the MIC in assay [1] was more than 100 µg/mL; in assay [2], more than 100 µg/mL; in assay [3], more than 100 µg/mL; in assay [5], more than 100 µg/mL; in [6], 12.5 µg/mL (≈ 27.4 µM); in assay [7], 6.25 µg/mL (≈ 13.7 µM). In addition, the MIC is 12.5 µg/mL (≈ 27.4 µM) in [8], 12.5 µg/mL (≈ 27.4 µM) in assay [9], 12.5 µg/mL (≈ 27.4 µM) in [10] and more than 100 µg/mL in [11]. The compound also yielded an IC50 in [4] of 78.7 µM.
For `O=[N+]([O-])c1cccc(C(c2ccc(O)cc2O)c2cc(Br)c(O)cc2O)c1` (configuration not stated), the MIC in assay [1] is more than 100 µg/mL; in assay [2] it was more than 100 µg/mL; in [3], 100 µg/mL (≈ 231 µM); in [5], more than 100 µg/mL; in assay [6] it was 12.5 µg/mL (≈ 28.9 µM); in [7], 6.25 µg/mL (≈ 14.5 µM). For the same compound, the MIC is 12.5 µg/mL (≈ 28.9 µM) in assay [8], 6.25 µg/mL (≈ 14.5 µM) in assay [9], 6.25 µg/mL (≈ 14.5 µM) in assay [10] and more than 100 µg/mL in assay [11]. Further, in [4], the IC50 was 69.9 µM.
Take `O=[N+]([O-])c1ccc(C(c2ccc(O)cc2O)c2cc(Br)c(O)cc2O)cc1` (configuration not stated): the MIC is more than 100 µg/mL in [1]; more than 100 µg/mL in assay [2]; more than 100 µg/mL in [3]; more than 100 µg/mL in [5]; 100 µg/mL (≈ 231 µM) in [6]; 50 µg/mL (≈ 116 µM) in [7]. For the same compound, the MIC was 50 µg/mL (≈ 116 µM) in [8], 100 µg/mL (≈ 231 µM) in [9], 100 µg/mL (≈ 231 µM) in assay [10] and more than 100 µg/mL in assay [11]. The compound further displayed an IC50 in [4] of 41.2 µM.
Turning to `CCCCCC(c1ccc(O)cc1O)c1ccc(O)cc1O`, the MIC in assay [1] was more than 100 µg/mL; in assay [2] it was more than 100 µg/mL; in [3] it was more than 100 µg/mL; in [5], more than 100 µg/mL; in assay [6], 12.5 µg/mL (≈ 41.3 µM); in assay [7], 6.25 µg/mL (≈ 20.7 µM). The MIC in assay [8] is 12.5 µg/mL (≈ 41.3 µM); in [9] it was 12.5 µg/mL (≈ 41.3 µM); in [10], 12.5 µg/mL (≈ 41.3 µM); in assay [11], 100 µg/mL (≈ 331 µM). Also, the IC50 in assay [4] amounted to 167 µM.
For the compound `O=C(O)CC[N+](=O)[O-]`, the IC50 in assay [4] amounted to 6 µM.
Turning to `CC1(C)S[C@@H]2[C@H](NC(=O)[C@H](N)c3ccccc3)C(=O)N2[C@H]1C(=O)O` [AMPICILLIN], the MIC in assay [1] amounted to 1.56 µg/mL (≈ 4.46 µM); in assay [2], 1.56 µg/mL (≈ 4.46 µM); in assay [3], 0.78 µg/mL (≈ 2.23 µM); in [5] it was 1.56 µg/mL (≈ 4.46 µM); in assay [6], 0.39 µg/mL (≈ 1.12 µM); in [7] it was 0.39 µg/mL (≈ 1.12 µM). Also, the MIC in assay [8] was 1.56 µg/mL (≈ 4.46 µM); in [9], 0.78 µg/mL (≈ 2.23 µM); in [10], 0.78 µg/mL (≈ 2.23 µM); in assay [11] it was 6.25 µg/mL (≈ 17.9 µM).
